Source: patent US8007995B2 (Bristol-Myers Squibb Company, priority 2005, dated 2011)

Columns and labels:
Test in all cases: Proliferation assay (cell counts, growth inhibition)
Type in all cases: cell-based, human
[1] = test system: KPL-1; conditions: Luminal, ER Positive, HER-2 Normal, inhibition at 1 μM
[2] = test system: BT-20; conditions: Basal, ER Negative, HER-2 Normal, inhibition at 1 μM
Text: (§1) The cell lines MDA-MB-415, MDA-MB-134, HCC-1500, ZR-75-30, HCC-202, HCC-1419, HCC-38, HCC-70, HCC-1187, HCC-1806, HCC-1937, HCC-1954, MDA-MB-436, HCC-1569, Hs578t, HCC-1143, MDA-MB-175, BT-474, SK-BR-3, MDA-MB-361, UAC-893, UACC-812, UACC-732, T-47D, MDA-MB-453, MDA-MB-468, CAMA-1, MDA-MB-157, MCF-7, MDA-MB-435, ZR-75-1, BT-20, and MDA-MB-231 were obtained from American Type Culture Collection (Rockville, Md.). The cell lines EFM-192A, KPL-1, EFM-19 and CAL-51 were obtained from the German Tissue Repository DSMZ (Braunschweig Germany), and the cell lines SUM-190 and SUM-225 were obtained from the University of Michigan (Ann Arbor, Mich.). MDA-MB-134, MDA-MB415, MDA-MB-436, MDA-MB-175, UACC-893, UACC-812, and MDA-MB-157 cells were cultured in L15 medium supplemented with 10% heat-inactivated fetal bovine serum (FBS), […] glutamine and 1% penicillin G-streptomycin-fungizone solution (PSF, Irvine Scientific, Santa Ana, Calif.). CAL-51, KPL-1, Hs578t cells were grown in DMEM supplemented with 10% heat-inactivated FBS and PSF, as above. SUM-190 and SUM-225 cells were cultured in HAM's F12 supplemented with 5% heat-inactivated FBS, PSF, […] hydrocortisone. The remaining cell lines were cultured in RPMI 1640 supplemented with 10% heat-inactivated FBS, 2 mmol/L glutamine, and PSF.
(§2) Cells were seeded in duplicate at 5,000 to 10,000 cells per well in 24-well plates. […] Control wells without drug were seeded as well. Both the adherent and floating fractions of cells were counted on days 2, 5 and 7 for both treatment and control wells. After trypsinization cells were placed in Isotone solution and counted immediately using a Coulter Z2 particle counter (Beckman Coulter Inc, Fullerton, Calif.).
(§3) Growth inhibition was calculated [(1-experimental value/control value)×100] for each day adding both the values obtained for the floating cells and the adherent cells. Pearson-Chi-square analysis was performed to identify a correlation between subtype and sensitivity to dasatinib. Dasatinib was a gift from Frank Lee at Bristol-Meyers-Squibb.

[3] = test system: BT-474; conditions: Luminal, ER Positive, HER-2 Amplified, inhibition at 1 μM
Text: as §1, §2, §3

[4] = test system: CAL-51; conditions: Post-EMT, ER Negative, HER-2 Normal, inhibition at 1 μM
Text: as §1, §2, §3

[5] = test system: CAMA-1; conditions: Luminal, ER Positive, HER-2 Normal, inhibition at 1 μM
Text: as §1, §2, §3

[6] = test system: EFM-192A; conditions: Luminal, ER Positive, HER-2 Amplified, inhibition at 1 μM
Text: as §1, §2, §3

[7] = test system: EFM-19; conditions: Luminal, ER Positive, HER-2 Normal, inhibition at 1 μM
Text: as §1, §2, §3

[8] = test system: HCC 38; conditions: Basal, ER Negative, HER-2 Normal, inhibition at 1 μM
Text: as §1, §2, §3

[9] = test system: HCC-1143; conditions: Basal, ER Negative, HER-2 Normal, inhibition at 1 μM
Text: as §1, §2, §3

[10] = test system: HCC-1187; conditions: Basal, ER Negative, HER-2 Normal, inhibition at 1 μM
Text: as §1, §2, §3

[11] = test system: HCC-1419; conditions: Luminal, ER Positive, HER-2 Amplified, inhibition at 1 μM
Text: as §1, §2, §3

[12] = test system: HCC-1500; conditions: Luminal, ER Positive, HER-2 Normal, inhibition at 1 μM
Text: as §1, §2, §3

[13] = test system: HCC-1569; conditions: Post-EMT, ER Negative, HER-2 Amplified, inhibition at 1 μM
Text: as §1, §2, §3

[14] = test system: HCC-1806; conditions: Basal, ER Negative, HER-2 Normal, inhibition at 1 μM
Text: as §1, §2, §3

[15] = test system: HCC-1937; conditions: Basal, ER Negative, HER-2 Normal, inhibition at 1 μM
Text: as §1, §2, §3

[16] = test system: HCC-1954; conditions: Basal, ER Negative, HER-2 Amplified, inhibition at 1 μM
Text: as §1, §2, §3

[17] = test system: HCC-202; conditions: Luminal, ER Positive, HER-2 Amplified, inhibition at 1 μM
Text: as §1, §2, §3

[18] = test system: HCC-70; conditions: Basal, ER Negative, HER-2 Normal, inhibition at 1 μM
Text: as §1, §2, §3

[19] = test system: Hs578t; conditions: Post-EMT, ER Negative, HER-2 Normal, inhibition at 1 μM
Text: as §1, §2, §3

[20] = test system: MCF-7; conditions: Luminal, ER Positive, HER-2 Normal, inhibition at 1 μM
Text: as §1, §2, §3

[21] = test system: MDA-MB-134; conditions: Luminal, ER Positive, HER-2 Normal, inhibition at 1 μM
Text: as §1, §2, §3

[22] = test system: MDA-MB-157; conditions: Post-EMT, ER Negative, HER-2 Normal, inhibition at 1 μM
Text: as §1, §2, §3

[23] = test system: MDA-MB-175; conditions: Luminal, ER Positive, HER-2 Normal, inhibition at 1 μM
Text: as §1, §2, §3

[24] = test system: MDA-MB-231; conditions: Post-EMT, ER Negative, HER-2 Normal, inhibition at 1 μM
Text: as §1, §2, §3

[25] = test system: MDA-MB-361; conditions: Luminal, ER Positive, HER-2 Amplified, inhibition at 1 μM
Text: as §1, §2, §3

[26] = test system: MDA-MB-415; conditions: Luminal, ER Positive, HER-2 Normal, inhibition at 1 μM
Text: as §1, §2, §3

[27] = test system: MDA-MB-435; conditions: Post-EMT, ER Negative, HER-2 Normal, inhibition at 1 μM
Text: as §1, §2, §3

[28] = test system: MDA-MB-436; conditions: Post-EMT, ER Negative, HER-2 Normal, inhibition at 1 μM
Text: as §1, §2, §3

[29] = test system: MDA-MB-453; conditions: Luminal, ER Negative, HER-2 Amplified, inhibition at 1 μM
Text: as §1, §2, §3

[30] = test system: MDA-MB-468; conditions: Basal, ER Negative, HER-2 Normal, inhibition at 1 μM
Text: as §1, §2, §3

[31] = test system: SK-BR-3; conditions: Luminal, ER Negative, HER-2 Amplified, inhibition at 1 μM
Text: as §1, §2, §3

[32] = test system: SUM-190; conditions: Luminal, ER Negative, HER-2 Amplified, inhibition at 1 μM
Text: as §1, §2, §3

[33] = test system: SUM-225; conditions: Luminal, ER Negative, HER-2 Amplified, inhibition at 1 μM
Text: as §1, §2, §3

[34] = test system: T-47D; conditions: Luminal, ER Positive, HER-2 Normal, inhibition at 1 μM
Text: as §1, §2, §3

[35] = test system: UACC-732; conditions: Luminal, ER Positive, HER-2 Amplified, inhibition at 1 μM
Text: as §1, §2, §3

[36] = test system: UACC-812; conditions: Luminal, ER Positive, HER-2 Amplified, inhibition at 1 μM
Text: as §1, §2, §3

[37] = test system: UACC-893; conditions: Luminal, ER Negative, HER-2 Amplified, inhibition at 1 μM
Text: as §1, §2, §3

[38] = test system: ZR-75-1; conditions: Luminal, ER Positive, HER-2 Normal, inhibition at 1 μM
Text: as §1, §2, §3

[39] = test system: ZR-75-30; conditions: Luminal, ER Positive, HER-2 Amplified, inhibition at 1 μM
Text: as §1, §2, §3

Cc1nc(Nc2ncc(C(=O)Nc3c(C)cccc3Cl)s2)cc(N2CCN(CCO)CC2)n1 [Dasatinib, N-(2-chloro-6-methylphenyl)-2-[[6-[4-(2-hydroxyethyl)-1-piperazinyl]-2-methyl-4-pyrimidinyl]amino]-5-thiazolecarboxamide]
Response to Dasatinib in vitro [1]: Resistant (<40% inhibition at 1 μM assigned to the resistant group)
Response to Dasatinib in vitro [2]: Resistant (<40% inhibition at 1 μM assigned to the resistant group)
Response to Dasatinib in vitro [3]: Moderately Sensitive (40-59% inhibition being assigned to the moderately sensitive group)
Response to Dasatinib in vitro [4]: Highly Sensitive (greater than 60% inhibition being assigned to the highly sensitive group)
Response to Dasatinib in vitro [5]: Resistant (<40% inhibition at 1 μM assigned to the resistant group)
Response to Dasatinib in vitro [6]: Resistant (<40% inhibition at 1 μM assigned to the resistant group)
Response to Dasatinib in vitro [7]: Moderately Sensitive (40-59% inhibition being assigned to the moderately sensitive group)
Response to Dasatinib in vitro [8]: Resistant (<40% inhibition at 1 μM assigned to the resistant group)
Response to Dasatinib in vitro [9]: Moderately Sensitive (40-59% inhibition being assigned to the moderately sensitive group)
Response to Dasatinib in vitro [10]: Moderately Sensitive (40-59% inhibition being assigned to the moderately sensitive group)
Response to Dasatinib in vitro [11]: Moderately Sensitive (40-59% inhibition being assigned to the moderately sensitive group)
Response to Dasatinib in vitro [12]: Resistant (<40% inhibition at 1 μM assigned to the resistant group)
Response to Dasatinib in vitro [13]: Resistant (<40% inhibition at 1 μM assigned to the resistant group)
Response to Dasatinib in vitro [14]: Highly Sensitive (greater than 60% inhibition being assigned to the highly sensitive group)
Response to Dasatinib in vitro [15]: Moderately Sensitive (40-59% inhibition being assigned to the moderately sensitive group)
Response to Dasatinib in vitro [16]: Moderately Sensitive (40-59% inhibition being assigned to the moderately sensitive group)
Response to Dasatinib in vitro [17]: Resistant (<40% inhibition at 1 μM assigned to the resistant group)
Response to Dasatinib in vitro [18]: Highly Sensitive (greater than 60% inhibition being assigned to the highly sensitive group)
Response to Dasatinib in vitro [19]: Highly Sensitive (greater than 60% inhibition being assigned to the highly sensitive group)
Response to Dasatinib in vitro [20]: Moderately Sensitive (40-59% inhibition being assigned to the moderately sensitive group)
Response to Dasatinib in vitro [21]: Resistant (<40% inhibition at 1 μM assigned to the resistant group)
Response to Dasatinib in vitro [22]: Highly Sensitive (greater than 60% inhibition being assigned to the highly sensitive group)
Response to Dasatinib in vitro [23]: Resistant (<40% inhibition at 1 μM assigned to the resistant group)
Response to Dasatinib in vitro [24]: Highly Sensitive (greater than 60% inhibition being assigned to the highly sensitive group)
Response to Dasatinib in vitro ([24]; listed as dasatinib): highly sensitive
Response to Dasatinib in vitro [25]: Moderately Sensitive (40-59% inhibition being assigned to the moderately sensitive group)
Response to Dasatinib in vitro [26]: Resistant (<40% inhibition at 1 μM assigned to the resistant group)
Response to Dasatinib in vitro [27]: Highly Sensitive (greater than 60% inhibition being assigned to the highly sensitive group)
Response to Dasatinib in vitro ([27]; listed as dasatinib): highly sensitive
Response to Dasatinib in vitro [28]: Highly Sensitive (greater than 60% inhibition being assigned to the highly sensitive group)
Response to Dasatinib in vitro [29]: Resistant (<40% inhibition at 1 μM assigned to the resistant group)
Response to Dasatinib in vitro [30]: Resistant (<40% inhibition at 1 μM assigned to the resistant group)
Response to Dasatinib in vitro ([30]; listed as dasatinib): resistant
Response to Dasatinib in vitro [31]: Resistant (<40% inhibition at 1 μM assigned to the resistant group)
Response to Dasatinib in vitro [32]: Resistant (<40% inhibition at 1 μM assigned to the resistant group)
Response to Dasatinib in vitro [33]: Resistant (<40% inhibition at 1 μM assigned to the resistant group)
Response to Dasatinib in vitro [34]: Moderately Sensitive (40-59% inhibition being assigned to the moderately sensitive group)
Response to Dasatinib in vitro [35]: Resistant (<40% inhibition at 1 μM assigned to the resistant group)
Response to Dasatinib in vitro [36]: Resistant (<40% inhibition at 1 μM assigned to the resistant group)
Response to Dasatinib in vitro [37]: Resistant (<40% inhibition at 1 μM assigned to the resistant group)
Response to Dasatinib in vitro [38]: Resistant (<40% inhibition at 1 μM assigned to the resistant group)
Response to Dasatinib in vitro [39]: Resistant (<40% inhibition at 1 μM assigned to the resistant group)
